Assay results: PubChem BioAssay (NCI)
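How tested: cells in 96-well plates exposed to compound for 48 hours at five concentrations. TGI: concentration producing complete growth inhibition.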

Columns and labels:
Assay in all cases: NCI anticancer screen, dose series, 48 h
DU-145 prostate = tested on: DU-145 prostate
OVCAR-4 ovarian = tested on: OVCAR-4 ovarian
HOP-92 NSCLC = tested on: HOP-92 NSCLC
SF-295 CNS = tested on: SF-295 CNS
A549 NSCLC = tested on: A549 NSCLC
LOX IMVI melanoma = tested on: LOX IMVI melanoma
CCRF-CEM leukemia = tested on: CCRF-CEM leukemia
UACC-257 melanoma = tested on: UACC-257 melanoma
HS 578T breast = tested on: HS 578T breast
NCI/ADR-RES ovarian = tested on: NCI/ADR-RES ovarian
SK-MEL-5 melanoma = tested on: SK-MEL-5 melanoma
ACHN renal = tested on: ACHN renal
MDA-MB-231 breast = tested on: MDA-MB-231 breast
NCI-H522 lung = tested on: NCI-H522 lung
U251 CNS = tested on: U251 CNS
A498 renal = tested on: A498 renal
SNB-19 CNS = tested on: SNB-19 CNS
K-562 leukemia = tested on: K-562 leukemia
TK-10 renal = tested on: TK-10 renal
RXF 393 renal = tested on: RXF 393 renal

SMILES | TGI (DU-145 prostate) [µM] | TGI (OVCAR-4 ovarian) [µM] | TGI (HOP-92 NSCLC) [µM] | TGI (SF-295 CNS) [µM] | TGI (A549 NSCLC) [µM] | TGI (LOX IMVI melanoma) [µM] | TGI (CCRF-CEM leukemia) [µM] | TGI (UACC-257 melanoma) [µM] | TGI (HS 578T breast) [µM] | TGI (NCI/ADR-RES ovarian) [µM] | TGI (SK-MEL-5 melanoma) [µM] | TGI (ACHN renal) [µM] | TGI (MDA-MB-231 breast) [µM] | TGI (NCI-H522 lung) [µM] | TGI (U251 CNS) [µM] | TGI (A498 renal) [µM] | TGI (SNB-19 CNS) [µM] | TGI (K-562 leukemia) [µM] | TGI (TK-10 renal) [µM] | TGI (RXF 393 renal) [µM]
COc1ccc(C2=C(N)c3c(Cl)cccc3C2=O)cc1 | > 100 | > 100 | > 100 | > 100 | > 100 | > 100 | > 100 | > 100 | > 100 | > 100 | > 100 | > 100 | > 100 | > 100 | > 100 | > 100 | > 100 |  |  | 
CN(C)CCNC(=O)c1cccc2c(NC(CS)C(=O)O)c3ccccc3[n+](C)c12 (configuration not stated) | > 100 | > 100 |  | > 100 | > 100 | > 100 |  | > 100 | > 100 | 93.2 | > 100 | > 100 | > 100 |  | > 100 | > 100 | > 100 | > 100 | > 100 | 
CCN(CC)CCN(C(=Nc1ccccc1)N1CCCCC1)c1ccccc1 | > 100 | 57.8 |  | 17.9 | 45.2 | 23.7 | 46.5 | 34.7 | 27 |  | 17.6 |  | 38.8 | 13.2 | 43.3 |  | > 100 | 16.2 | 97.8 | 41.1
C/C=C1\CC2C(=O)CCC2C2c3ccccc3OC12 (configuration not stated) | 10.7 | > 100 | > 100 | > 100 | > 100 | > 100 | > 100 | > 100 | > 100 | > 100 | > 100 | > 100 | > 100 | > 100 | > 100 |  | > 100 | > 100 | > 100 | > 100
Cc1ccc(-c2n[nH]c(=O)n2NC(=O)c2ccccc2C(=O)O)cc1 | > 100 |  | > 100 | > 100 | > 100 | > 100 |  | > 100 | > 100 | > 100 | > 100 | > 100 | > 100 | > 100 | > 100 |  | > 100 | > 100 | > 100 | > 100
CCOC(=O)Cn1c(=O)c2nc(SC)sc2n(-c2ccccc2)c1=S | > 100 | 35.2 | 21 | > 100 | > 100 | > 100 | > 100 | > 100 | 34.4 | > 100 | > 100 | 43.4 | 72.9 | > 100 | 29.3 |  | 30.6 | > 100 | 60.1 | 52.2
O=C(CCCN1CCC(Nc2ccccc2)(c2nnnn2C2CCCCC2)CC1)c1ccc(F)cc1 | 15.5 | 20.5 |  | 41.8 | 20.4 | > 100 | 44.6 | 6.65 | 29.2 | > 100 | 3 | 16.7 | 24.2 | 19.3 | 18 |  | 21.4 | 33.9 | 26.1 | 22.4
N#Cc1ccc(CSC2=C(c3ccc(Cl)cc3)S/C(=C3\SC(SCc4ccc(C#N)cc4)=C(c4ccc(Cl)cc4)S3)S2)cc1 | > 100 | > 100 |  | > 100 | > 100 | > 100 | > 100 | > 100 | > 100 | > 100 | > 100 | > 100 | > 100 | > 100 | > 100 | > 100 | > 100 | > 100 | > 100 | > 100
COC(=O)C1=C(OC(=O)c2ccccc2)C(C(=O)OC)[C@@]2(O)[C@@H](C(=O)OC)[C@H](C)C[C@@H]1[C@@H]2C(=O)OC (some centres not stated) | > 100 | > 100 |  | > 100 | 71.6 | > 100 | > 100 | > 100 | > 100 | 44.8 | > 100 | > 100 | > 100 | 33 | > 100 | 94.5 | > 100 |  | > 100 | 42.9
CCOC(=O)C1C(C)C2(C#N)C(=N)OC1(C)C2(C#N)C#N (configuration not stated) | > 100 |  | 97.1 | > 100 | > 100 | 67.1 |  | > 100 | > 100 | > 100 | 98.5 | > 100 | > 100 | > 100 | > 100 | > 100 | > 100 | > 100 | > 100 | 92.7
